In patent publication US9101566B2, “Fermentation product of cereal plant-derived material and immunomodulator” (KIRIN HOLDINGS KABUSHIKI KAISHA, priority 2009, dated 2015):

Columns and labels:
[1] = test system: regional lymph node cells and spleen cells of EAE mice; assay: EAE model, day 11 autopsy: inflammatory cytokines produced by lymph node and spleen cells (ELISA); type: in vivo, mouse
Experimental: On day 0, the 35-55 peptide (MOG35-55, Operon), a glycoprotein of myelin oligodendroglial cells, as an antigen was mixed with complete Freund's adjuvant (CFA, Difco) and then the mixture was subcutaneously administered at a dose of 200 μg/animal. Subsequently, pertussis toxin (Wako Pure Chemical Industries, Japan) was intraperitoneally administered at a dose of 200 ng/animal on day 1 and day 3, thereby inducing the onset of multiple sclerosis. During days 7 to 18, 14-DHE was intraperitoneally administered at a dose of 10 μg/animal once a day. To the vehicle group, the following solvent for 14-DHE was administered: 10% ethanol (Wako Pure Chemical Industries, Japan)/10% Cremophor (Wako Pure Chemical Industries, Japan)/80% PBS (Takara, Japan).
Mice were autopsied on day 11 (when inflammation was thought to take place in vivo) to obtain biochemical data.
(1) Spleen cells were prepared and then cultured for 7 days with or without re-stimulation with 2 μM MOG. Culture supernatants were recovered. The amounts of produced IFN-γ and TNF-α were measured by ELISA.

[2] = test system: C57BL/6 mDCs co-cultured with OT-II mouse naive CD4+ T cells; assay: Cytokine profile of CD4+ T cells induced by DCs treated with 14-DHE, antigen-specific T cell reaction (Example 11); type: cell-based; settings: 0.1 μM OVA323-339 peptide, day 4, vs control mDCs
Experimental: mDCs were prepared by the method same as that in the MLR experiment. Naive CD4^+ T cells were prepared from OT-II mice (Charles River) in which TCR of CD4^+ T cells is specific for OVA323-339 epitope on the C57BL/6 background. Mixed culture was performed at a ratio of mDC:CD4^+ T cell of 1:5 in the presence of 0.1 μM OVA323-339 peptide. The culture supernatant was recovered on day 4 of culture, and then TNF-α, IFN-γ, IL-6, IL-10, and IL-17 were measured by ELISA.

[3] = test system: naive CD4+ T cells from BALB/c mouse spleen; assay: Regulatory T-cell-inducing effect of 14-DHE on CD4+ naive T cells (Example 13); type: cell-based
Experimental: Naive CD4^+ T cells were isolated from BALB/c mouse spleen-derived cells using the CD4^+CD62L^+ T cell isolation kit II (mouse) (Miltenyi Biotec). CD4^+ T cells were seeded at a density of 5×10^5 cells/mL to 48-well plates (2.5×10^5 cells per well), and then 1 μg/mL anti-CD3 antibody and 0.2 μg/mL anti-CD28 antibody were added. At this time, 2 types of media (i.e., media with and without TGF-β) were used. 14-DHE was added at a concentration of 0, 50, 100, 500, and 1000 nM. Five days later, cells were recovered. The proportion of CD25^+FoxP3^+ cells in CD4^+ T cells was determined using a flow cytometer. Prior to flow cytometry, cell surface staining was performed using CD4-APC, CD25-FITC and CD3e-PerCP, cell membrane permeabilization treatment was performed using the FoxP3 staining buffer set (eBioscience), and then FoxP3-PE staining was performed.

[4] = test system: C57BL/6 mDCs co-cultured with BALB/c CD8+ T cells; assay: CD8+ Treg differentiation-inducing capacity of DCs treated with 14-DHE (Example 12); type: cell-based, mouse; settings: mDC:CD8+ T 1:10; 0.5 ng/mL TGF-α 3; 5 days
Experimental: In a manner similar to Example 11, mDCs were sorted from DCs induced from C57BL/6 mouse bone marrow cells in the presence of 14-DHE and Flt-3L. Next, CD8^+ T cells were isolated from the BALB/c mouse spleen using the CD8α^+ T cell isolation kit (mouse) (Miltenyi Biotec). Cells were mixed at a ratio of mDC:CD8^+ T cell of 1:10 and then cultured in the medium containing 0.5 ng/mL […] for 5 days. Five days later, the cells were recovered and then the proportion of CD25^+FoxP3^+ cells in CD8^+ T cells was determined using a flow cytometer. Prior to flow cytometry, cell staining was performed using CD8α-PE-Cy7, CD25-APC-Cy7, and CD3e-PerCP, cell membrane permeabilization treatment was performed using the FoxP3 staining buffer set (eBioscience), and then FoxP3-PE staining was performed.

[5] = test system: dendritic cells induced from C57BL/6 mouse bone marrow cells with Flt-3L (mDCs, CD11c+CD11b+); assay: Regulatory DC-inducing activity of 14-dehydroergosterol (Example 9); type: cell-based
Experimental: Regulatory DC induction activity was evaluated for 14-dehydroergosterol (14-DHE) isolated and purified from wheat bran fermented with koji as described above and subjected to structural determination. As controls, ergosterol (Wako Pure Chemical Industries, Japan) and 9(11)-dehydroergosterol (9(11)-DHE) (Sigma-Aldrich Corp.), which are ergosterol-related substances, were used. Also, as conjugated linoleic acid (CLA) that was reported in connection with the inhibition of DC activation in the past, CLA (9Z, 11E) and CLA (10E, 12Z) (both, Cayman Chemical), and linoleic acid (Wako Pure Chemical Industries, Japan) were also subjected to activity determination (J. Immunol., 175(8): 4990-8, Oct. 15, 2005). As negative controls, a sample (none) to which no compound had been administered and a sample (ctrl) to which only LPS had been administered were also subjected to activity determination.
In a manner similar to Example 2, bone marrow cells were prepared from C57BL/6 mouse thigh bone, and then dendritic cells were induced using Flt-3L. Each test substance was added simultaneously with the initiation of culture at a concentration of 1 μM, 5 μM, or 10 μM. Seven days later, LPS (from Salmonella typhosa) (Sigma-Aldrich Corp.) was added at 5 ng/mL and then 24 hours later the cells were recovered. Subsequently, the cells were stained for the following cell markers and then subjected to flow cytometry analysis. All antibodies used were produced by Becton, Dickinson and Company. CD11c^+CD11b^+ was set as a gate for mDCs and then the expression levels of CD40, CD80, CD86, I-A/I-E, and ICOS-L were measured. Also, IL-12p40 and IL-10 in culture supernatants were measured by ELISA.

[6] = re-stimulation with MOG antigen
[7] = 1, 5 or 10 μM, LPS 5 ng/mL 24 h
[8] = 1, 5 or 10 μM, LPS 5 ng/mL, culture supernatant

CC(C)[C@@H](C)/C=C/[C@@H](C)[C@H]1CC=C2C3=CC=C4C[C@@H](O)CC[C@]4(C)[C@H]3CC[C@@]21C [Sample 14-DHE, ergosta-5,7,14,22-tetraen-3β-ol]
IFN-γ production from regional lymph node cells ([1]; not re-stimulated with MOG antigen): significantly decrease
TNF-α production from spleen cells ([1]; re-stimulated with MOG antigen): decreased
IFN-γ production from regional lymph node cells [1, 6]: decreasing trend
IFN-γ production from spleen cells [1, 6]: decreasing trend
TNF-α production from regional lymph node cells ([1]; with or without re-stimulation with MOG antigen): significantly decreased
IFN-γ production (ELISA) [2]: no statistically significant difference was observed
IL-6 production (ELISA) [2]: a significant decrease
IL-10 production (ELISA) [2]: significant increase
IL-17 production (ELISA) [2]: no statistically significant difference was observed
TNF-α production (ELISA) [2]: a significant decrease
effective concentration on T cells lower compared with that of DCs ([3]; T cells vs DCs (1 μM)): ≥ 20 times
proportion of CD25+FoxP3+ cells in CD4+ T cells ([3]; absence of TGF-β, 14-DHE 50-1000 nM, 5 days): no change
increase in proportion of CD25+FoxP3+ cells compared with no 14-DHE ([3]; presence of TGF-β, 14-DHE 50 nM (lowest concentration), 5 days): ≥ 5 times
induction of CD8+CD25+FoxP3+ cells compared with control mDCs [4]: ≥ 3 times
expression level of CD40 [5, 7]: significantly decreased
expression level of CD80 [5, 7]: significantly decreased
expression level of CD86 [5, 7]: significantly decreased
expression level of ICOS-L marker [5, 7]: remained almost unchanged
expression level of MHC class II molecule I-A/I-E [5, 7]: significantly decreased
expression of anti-inflammatory cytokine IL-10 (ELISA) [5, 8]: slightly increased
expression of inflammatory cytokine IL-12p40 (ELISA) [5, 8]: drastically decreased
effective concentration on DCs ([5]; DCs): 1 µM
